pEC50: −log10 of the molar value.
Biological target: T1, ENaC (Homo sapiens, UniProt P37088+P51168+P51170)
T1 construct: host or cells: primary normal human bronchial epithelial cells, ALI culture
T1 sequence (P37088 1-669): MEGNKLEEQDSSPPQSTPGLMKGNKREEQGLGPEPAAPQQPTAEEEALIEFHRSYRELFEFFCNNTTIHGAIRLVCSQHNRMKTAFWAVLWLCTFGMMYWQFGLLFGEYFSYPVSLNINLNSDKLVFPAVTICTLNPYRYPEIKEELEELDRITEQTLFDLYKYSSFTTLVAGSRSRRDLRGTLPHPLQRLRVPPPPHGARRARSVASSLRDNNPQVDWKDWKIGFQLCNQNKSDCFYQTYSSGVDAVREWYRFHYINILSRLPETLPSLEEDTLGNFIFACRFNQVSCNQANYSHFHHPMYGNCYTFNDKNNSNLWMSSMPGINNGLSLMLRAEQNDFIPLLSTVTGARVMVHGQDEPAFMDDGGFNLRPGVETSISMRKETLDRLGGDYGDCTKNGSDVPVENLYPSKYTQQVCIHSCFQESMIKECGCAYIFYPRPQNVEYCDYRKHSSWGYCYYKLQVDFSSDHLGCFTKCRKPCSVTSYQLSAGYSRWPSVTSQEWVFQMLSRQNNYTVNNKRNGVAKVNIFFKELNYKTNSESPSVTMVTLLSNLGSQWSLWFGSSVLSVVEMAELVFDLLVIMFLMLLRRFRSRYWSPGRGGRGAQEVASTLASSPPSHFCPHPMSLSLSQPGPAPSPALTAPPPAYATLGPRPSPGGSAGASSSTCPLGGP
T1 sequence (P51168 1-640): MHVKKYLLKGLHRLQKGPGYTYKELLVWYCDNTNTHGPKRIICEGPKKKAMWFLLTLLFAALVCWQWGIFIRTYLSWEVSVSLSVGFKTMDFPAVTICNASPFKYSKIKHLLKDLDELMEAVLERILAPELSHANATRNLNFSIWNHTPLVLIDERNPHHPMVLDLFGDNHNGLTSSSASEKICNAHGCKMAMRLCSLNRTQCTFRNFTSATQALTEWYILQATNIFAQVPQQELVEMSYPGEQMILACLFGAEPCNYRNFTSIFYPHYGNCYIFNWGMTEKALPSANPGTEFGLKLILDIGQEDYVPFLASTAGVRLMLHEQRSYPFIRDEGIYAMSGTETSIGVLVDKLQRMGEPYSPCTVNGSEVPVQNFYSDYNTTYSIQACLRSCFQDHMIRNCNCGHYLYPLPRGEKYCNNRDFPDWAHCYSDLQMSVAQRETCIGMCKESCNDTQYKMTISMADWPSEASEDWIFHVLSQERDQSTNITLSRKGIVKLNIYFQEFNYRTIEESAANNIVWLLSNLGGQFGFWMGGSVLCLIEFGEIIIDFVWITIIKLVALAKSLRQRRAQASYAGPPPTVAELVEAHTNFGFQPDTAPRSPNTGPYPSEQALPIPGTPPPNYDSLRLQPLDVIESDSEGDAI
T1 sequence (P51170 1-649): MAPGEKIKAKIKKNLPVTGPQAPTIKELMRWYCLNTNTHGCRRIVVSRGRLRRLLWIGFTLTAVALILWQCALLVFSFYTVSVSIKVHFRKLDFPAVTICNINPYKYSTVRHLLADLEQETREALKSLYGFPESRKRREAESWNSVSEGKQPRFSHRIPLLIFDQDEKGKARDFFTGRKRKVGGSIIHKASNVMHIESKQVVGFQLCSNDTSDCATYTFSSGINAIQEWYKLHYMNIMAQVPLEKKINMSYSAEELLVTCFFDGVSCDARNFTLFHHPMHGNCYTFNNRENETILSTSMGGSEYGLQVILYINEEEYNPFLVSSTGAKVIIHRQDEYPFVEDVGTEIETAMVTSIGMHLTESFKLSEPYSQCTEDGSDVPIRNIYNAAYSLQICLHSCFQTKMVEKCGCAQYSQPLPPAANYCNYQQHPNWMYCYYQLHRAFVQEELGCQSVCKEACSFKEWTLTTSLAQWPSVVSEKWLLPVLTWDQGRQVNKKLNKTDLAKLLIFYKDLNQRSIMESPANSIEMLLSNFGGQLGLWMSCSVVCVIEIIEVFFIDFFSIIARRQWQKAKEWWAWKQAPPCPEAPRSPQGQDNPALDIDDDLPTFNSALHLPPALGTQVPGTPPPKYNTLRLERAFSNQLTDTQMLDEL
Assay: Ussing chamber Isc in F508del-homozygous CF HBEC cultures
Format: cell-based
Experimental: Using previously described techniques ([2], [37]), epithelial cells were harvested from excised lung tissue derived from CF donors homozygous for F508del CFTR, expanded, and grown until confluency was attained. […] To stimulate fresh mucus secretion and formation of an even ASL layer, the cells were washed 48–72 h before experimentation with PneumaCult ALI media (80 µL), added apically, and then aspirated following 30–45 min incubation at 37°C. The washing process was repeated with a 15-min incubation period and the mucus layer was allowed to reestablish, after which the cells were treated with 1 µL of AZD5634 (1 µM, apical), alone and in combination with lumacaftor and ivacaftor (luma/iva; 3 µM/10 µM, basolateral). PBS (1% DMSO, apical) served as a vehicle control. […] Only passage 1 and 2 monolayers were used for these studies.
CFTR-dependent ion transport electrophysiology was measured in HBEC cultures by Isc using modified P2300 Ussing chambers (Physiologic Instruments, San Diego, CA) as previously described ([37], [38]). […] All chambers were maintained at 37°C and agonist stimulation was initiated within 15 min of placement in the chambers.
Descriptive statistics were calculated and means compared using unpaired or paired t tests, or ANOVA, with post hoc analyses conducted for multiple comparisons where appropriate. For analyses of functional anatomy of en bloc trachea, a mixed linear model was used that corrected for within-animal correlation. All tests were two-sided and were computed using GraphPad Prism (GraphPad Software, Inc., La Jolla, CA). P-values <0.05 were considered significant. Statistics are reported as means ± SE, unless indicated otherwise.

AZD5634
pEC50 (F508del-homozygous HBE ALI cultures, read-out: half maximal effective concentration (EC50), cumulative drug effect on Isc): 7.34 | incremental Isc change (at 100 nM): −6.4 ± 1.6 | cumulative ΔIsc (at the maximum concentration (10,000 nM)): −25.3 ± 5.9 | further reduction in Isc upon acute addition of benzamil (benzamil 10 μM after maximal concentration of test drug): no further appreciable reductions in Isc

— PMC9602792, “Preclinical evaluation of the epithelial sodium channel inhibitor AZD5634 and implications on human translation” (American Journal of Physiology - Lung Cellular and …, 2022)
